Assay [1] has as its system HEK293. The assay is described as follows: Selectivity ratio of IC50 for C-terminal HA-tagged human MC4-R stably expressed in HEK293 cells co-expressing GScAMP22P cAMP reporter assessed as inhibition of alpha-MSH induced cAMP production to IC50 for C-terminal HA-tagged human MC1-R stably expressed in HEK293 cells co-expressing GScAMP22P cAMP reporter assessed as inhibition of alpha-MSH induced cAMP production. Format: cell-based. For orientation: Changes in cAMP serve as a functional read-out for many G protein-coupled receptors.

Assay [2] concerns HEK293. As to the kind of experiment: Selectivity ratio of IC50 for C-terminal HA-tagged human MC4-R stably expressed in HEK293 cells co-expressing GScAMP22P cAMP reporter assessed as inhibition of alpha-MSH induced cAMP production to IC50 for C-terminal HA-tagged human MC3-R stably expressed in HEK293 cells co-expressing GScAMP22P cAMP reporter assessed as inhibition of alpha-MSH induced cAMP production. The format is cell-based.

Assay [3] concerns the target T1, Melanocyte-stimulating hormone receptor (Homo sapiens, UniProt Q01726). The assay is described as follows: Partial agonist activity at C-terminal HA-tagged human MC1-R stably expressed in HEK293 cells co-expressing GScAMP22P cAMP reporter assessed as inhibition of alpha-MSH induced cAMP production by cell based luminescence assay relative to control. Format: functional. The arrangement: concentration or dose not given beside the values. Particulars: filed as partial agonist, concentration not given here.
Target sequence in this assay (Q01726 whole entry, looked up): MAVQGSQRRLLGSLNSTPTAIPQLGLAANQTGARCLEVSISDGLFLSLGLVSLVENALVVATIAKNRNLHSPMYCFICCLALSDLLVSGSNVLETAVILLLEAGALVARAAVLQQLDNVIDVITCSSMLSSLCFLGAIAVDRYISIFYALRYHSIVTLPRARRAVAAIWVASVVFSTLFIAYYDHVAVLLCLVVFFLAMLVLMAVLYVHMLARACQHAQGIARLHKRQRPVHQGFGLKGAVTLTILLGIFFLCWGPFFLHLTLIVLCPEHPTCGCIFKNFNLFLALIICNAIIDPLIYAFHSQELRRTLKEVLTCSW

The target of assay [4] is T1, Melanocyte-stimulating hormone receptor. As to the kind of experiment: Partial agonist activity at C-terminal HA-tagged human MC1-R stably expressed in HEK293 cells co-expressing GScAMP22P cAMP reporter assessed as inhibition of alpha-MSH induced cAMP production by cell based luminescence assay. The format is functional.
Target sequence in this assay (Q01726 whole entry): as the sequence (Q01726 whole entry, looked up) above
Another assay deals with Melanocortin receptor 4 (Homo sapiens, UniProt P32245). As to the kind of experiment: Antagonist activity at C-terminal HA-tagged human MC4-R stably expressed in HEK293 cells co-expressing GScAMP22P cAMP reporter assessed as inhibition of alpha-MSH induced cAMP production by cell based luminescence assay. Format: functional. Particulars: hek293; read-out: IC50.
The next assay concerns the target Melanocortin receptor 3 (Homo sapiens, UniProt P41968). As to the kind of experiment: Antagonist activity at C-terminal HA-tagged human MC3-R stably expressed in HEK293 cells co-expressing GScAMP22P cAMP reporter assessed as inhibition of alpha-MSH induced cAMP production by cell based luminescence assay. Conditions: read-out: IC50. Format: functional.

Chain of Melanocortin receptor 4 (P32245 whole entry): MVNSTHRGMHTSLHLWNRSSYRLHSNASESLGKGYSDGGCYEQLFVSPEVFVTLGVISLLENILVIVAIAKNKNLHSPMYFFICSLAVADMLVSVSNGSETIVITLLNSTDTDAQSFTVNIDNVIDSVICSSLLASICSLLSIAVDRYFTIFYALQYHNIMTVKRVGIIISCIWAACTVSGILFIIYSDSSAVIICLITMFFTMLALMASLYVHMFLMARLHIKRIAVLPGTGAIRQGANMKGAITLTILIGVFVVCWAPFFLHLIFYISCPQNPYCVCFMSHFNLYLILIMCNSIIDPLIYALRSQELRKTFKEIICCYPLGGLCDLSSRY
Chain of Melanocortin receptor 3 (P41968 whole entry): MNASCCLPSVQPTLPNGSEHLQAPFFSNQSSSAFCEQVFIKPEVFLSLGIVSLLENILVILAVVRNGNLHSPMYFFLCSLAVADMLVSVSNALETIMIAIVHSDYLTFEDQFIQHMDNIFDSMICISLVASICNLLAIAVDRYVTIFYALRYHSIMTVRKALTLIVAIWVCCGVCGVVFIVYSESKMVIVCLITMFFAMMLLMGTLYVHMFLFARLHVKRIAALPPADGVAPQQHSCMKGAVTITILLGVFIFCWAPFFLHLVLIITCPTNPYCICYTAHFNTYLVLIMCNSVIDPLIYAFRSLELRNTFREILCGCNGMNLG

Take `CCCCC(NC(C)=O)C(=O)N[C@H]1CC(=O)NCCCC[C@@H](C(N)=O)NC(=O)CNC(=O)[C@H](Cc2c[nH]c3ccccc23)NC(=O)[C@H](CCCNC(=N)N)NC(=O)[C@@H](Cc2ccc3ccccc3c2)NC(=O)[C@@H]2C[C@@H](n3cc(-c4ccccn4)nn3)CN2C1=O` (stereo partly specified): the Ratio IC50 in the assay on HEK293 [1] worked out at 53; with HEK293 [2] it was 1.6. Also, the inhibition (in general, the relative decrease from the control value, in per cent) in assay [3] is 88.4%.

Consider `CCCC[C@H](NC(C)=O)C(=O)N[C@H]1CC(=O)NCCCC[C@@H](C(N)=O)NC(=O)[C@H](Cc2c[nH]c3ccccc23)NC(=O)[C@H](CCCNC(=N)N)NC(=O)[C@@H](Cc2ccc3ccccc3c2)NC(=O)[C@H](Cc2c[nH]cn2)NC1=O`, for which the inhibition in assay [3] was found to be 76%.

Regarding `CCCC[C@H](NC(C)=O)C(=O)N[C@H]1CC(=O)NCCCC[C@@H](C(N)=O)NC(=O)CNC(=O)[C@H](Cc2c[nH]c3ccccc23)NC(=O)[C@H](CCCNC(=N)N)NC(=O)[C@@H](Cc2ccc3ccccc3c2)NC(=O)[C@@H]2C[C@@H](n3cc(C(C)(C)N)nn3)CN2C1=O`, the IC50 (usually the concentration needed to halve the response being measured) is 1.53 nM in assay [4] (hek293), 4.34 nM at Melanocortin receptor 4 and 72.4 nM at Melanocortin receptor 3 (hek293).

`CCCC[C@H](NC(C)=O)C(=O)N[C@H]1CC(=O)NCCCC[C@@H](C(N)=O)NC(=O)CNC(=O)[C@H](Cc2c[nH]c3ccccc23)NC(=O)[C@H](CCCNC(=N)N)NC(=O)[C@@H](Cc2ccc3ccccc3c2)NC(=O)[C@@H]2C[C@H](NC(=O)CCNC(=N)N)CN2C1=O`: the IC50 in assay [4] turned out to be 0.12 nM. For the same molecule, the inhibition in assay [3] stood at 78.6%.

On to `CCCC[C@H](NC(C)=O)C(=O)N[C@H]1CC(=O)NCCCC[C@@H](C(N)=O)NC(=O)[C@H](CCCCNC(=N)N(CCC)CCC)NC(=O)[C@H](Cc2c[nH]c3ccccc23)NC(=O)[C@H](CCCNC(=N)N)NC(=O)[C@@H](Cc2ccc3ccccc3c2)NC(=O)[C@@H]2CCCN2C1=O`, for which, in assay [4], the concentration for half-maximal inhibition (IC50) was 175 nM. Besides, in assay [3], the inhibition is 88.7%.

For the molecule `CCCC[C@H](NC(C)=O)C(=O)N[C@H]1CC(=O)NCCCC[C@@H](C(N)=O)NC(=O)[C@H](CCCCNC(=N)NCCC(=O)O)NC(=O)[C@H](Cc2c[nH]c3ccccc23)NC(=O)[C@H](CCCNC(=N)N)NC(=O)[C@@H](Cc2ccc3ccccc3c2)NC(=O)[C@@H]2CCCN2C1=O`, the IC50 in assay [4] was 608 nM. Besides, the inhibition in assay [3] turned out to be 83.2%.

`CCCC[C@H](NC(C)=O)C(=O)N[C@H]1CC(=O)NCCCC[C@@H](C(N)=O)NC(=O)[C@H](CCCN)NC(=O)[C@H](Cc2c[nH]c3ccccc23)NC(=O)[C@H](CCCNC(=N)N)NC(=O)[C@@H](Cc2ccc3ccccc3c2)NC(=O)[C@@H]2CCCN2C1=O`: the IC50 in assay [4] was 363 nM. Further, the inhibition in assay [3] was 83.8%.

For `CCCC[C@H](NC(C)=O)C(=O)N[C@H]1CC(=O)NCCCC[C@@H](C(N)=O)NC(=O)[C@H](CCCCN)NC(=O)[C@H](Cc2c[nH]c3ccccc23)NC(=O)[C@H](CCCNC(=N)N)NC(=O)[C@@H](Cc2ccc3ccccc3c2)NC(=O)[C@@H]2CCCN2C1=O`, the IC50 in assay [4] was determined as 158 nM. Further, the inhibition in assay [3] is 81.6%.

Take `CC(=O)N[C@H](CCCN)C(=O)N[C@H]1CC(=O)NCCCC[C@@H](C(N)=O)NC(=O)[C@H](CCCNC(=N)N)NC(=O)[C@H](Cc2c[nH]c3ccccc23)NC(=O)[C@H](CCCNC(=N)N)NC(=O)[C@@H](Cc2ccc3ccccc3c2)NC(=O)[C@@H]2CCCN2C1=O`: in assay [4], the IC50 worked out at 3060 nM. For the same molecule, in assay [3], the inhibition turned out to be 73.7%.

For `CCCC[C@H](NC(C)=O)C(=O)N[C@H]1CC(=O)NCCCC[C@@H](C(N)=O)NC(=O)[C@H](CCCCNC(=N)NCCC)NC(=O)[C@H](Cc2c[nH]c3ccccc23)NC(=O)[C@H](CCCNC(=N)N)NC(=O)[C@@H](Cc2ccc3ccccc3c2)NC(=O)[C@@H]2CCCN2C1=O`, the IC50 in assay [4] is 75 nM. Further, in assay [3], the inhibition was 86.2%.

`CCCC[C@H](NC(C)=O)C(=O)N[C@H]1CC(=O)NCCCC[C@@H](C(N)=O)NC(=O)[C@H](CCCCNC(=N)NCCN)NC(=O)[C@H](Cc2c[nH]c3ccccc23)NC(=O)[C@H](CCCNC(=N)N)NC(=O)[C@@H](Cc2ccc3ccccc3c2)NC(=O)[C@@H]2CCCN2C1=O`: the IC50 in assay [4] is 15.4 nM. Besides, the inhibition in assay [3] turned out to be 85.3%.

Regarding `CCCC[C@H](NC(C)=O)C(=O)N[C@H]1CC(=O)NCCCC[C@@H](C(N)=O)NC(=O)[C@H](CCCCNC(=N)N)NC(=O)[C@H](Cc2c[nH]c3ccccc23)NC(=O)[C@H](CCCNC(=N)N)NC(=O)[C@@H](Cc2ccc3ccccc3c2)NC(=O)[C@@H]2CCCN2C1=O`, the IC50 in assay [4] was 816 nM. The inhibition in assay [3] was determined as 90.6%.

Regarding `CC(=O)N[C@H](CCCNC(=N)N)C(=O)N[C@H]1CC(=O)NCCCC[C@@H](C(N)=O)NC(=O)[C@H](CCCNC(=N)N)NC(=O)[C@H](Cc2c[nH]c3ccccc23)NC(=O)[C@H](CCCNC(=N)N)NC(=O)[C@@H](Cc2ccc3ccccc3c2)NC(=O)[C@@H]2CCCN2C1=O`, in assay [4], the IC50 was 1240 nM. Besides, the inhibition in assay [3] came out at 94.6%.

As for `CCCC[C@H](NC(C)=O)C(=O)N[C@H]1CC(=O)NCCCC[C@@H](C(N)=O)NC(=O)CNC(=O)[C@H](Cc2c[nH]c3ccccc23)NC(=O)[C@H](CCCNC(=N)N)NC(=O)[C@@H](Cc2ccc3ccccc3c2)NC(=O)[C@@H]2C[C@H](n3cc(CCNC(=N)N)nn3)CN2C1=O`, the IC50 in assay [4] was determined as 5.09 nM. Moreover, the inhibition in assay [3] was 85.9%.

As for `CCCC[C@H](NC(C)=O)C(=O)N[C@H]1CC(=O)NCCCC[C@@H](C(N)=O)NC(=O)[C@H](Cc2ccc(NC(=N)N)cc2)NC(=O)[C@H](Cc2c[nH]c3ccccc23)NC(=O)[C@H](CCCNC(=N)N)NC(=O)[C@@H](Cc2ccc3ccccc3c2)NC(=O)[C@@H]2CCCN2C1=O`, the half-inhibitory concentration (IC50) in assay [4] is 90 nM. Moreover, in assay [3], the inhibition was 88.6%.

Take `CCCC[C@H](NC(C)=O)C(=O)N[C@H]1CC(=O)NCCCC[C@@H](C(N)=O)NC(=O)CNC(=O)[C@H](Cc2c[nH]c3ccccc23)NC(=O)[C@H](CCCNC(=N)N)NC(=O)[C@@H](Cc2ccc3ccccc3c2)NC(=O)[C@@H]2C[C@H](NC(=O)c3ccccc3)CN2C1=O`: the IC50 in assay [4] came out at 22.5 nM. In assay [3], the inhibition was 90.9%.

Turning to `CCCC[C@H](NC(C)=O)C(=O)N[C@H]1CC(=O)NCCCC[C@@H](C(N)=O)NC(=O)CNC(=O)[C@H](Cc2c[nH]c3ccccc23)NC(=O)[C@H](CCCNC(=N)N)NC(=O)[C@@H](Cc2ccc3ccccc3c2)NC(=O)[C@@H]2C[C@@H](NC(=O)CCNC(=N)N)CN2C1=O`, in assay [4], the IC50 was found to be 0.08 nM. For the same molecule, in assay [3], the inhibition worked out at 76.4%.

As for `CCCC[C@H](NC(C)=O)C(=O)N[C@H]1CC(=O)NCCCC[C@@H](C(N)=O)NC(=O)[C@H](CCCCNC(=N)NCc2ccccc2)NC(=O)[C@H](Cc2c[nH]c3ccccc23)NC(=O)[C@H](CCCNC(=N)N)NC(=O)[C@@H](Cc2ccc3ccccc3c2)NC(=O)[C@@H]2CCCN2C1=O`, the IC50 in assay [4] amounted to 92 nM. For the same molecule, the inhibition in assay [3] amounted to 89.6%.

With `CCCC[C@H](NC(C)=O)C(=O)N[C@H]1CC(=O)NCCCC[C@@H](C(N)=O)NC(=O)[C@H](CCCNC(N)=O)NC(=O)[C@H](Cc2c[nH]c3ccccc23)NC(=O)[C@H](CCCNC(=N)N)NC(=O)[C@@H](Cc2ccc3ccccc3c2)NC(=O)[C@@H]2CCCN2C1=O`, in assay [4], the IC50 turned out to be 575 nM. Further, in assay [3], the inhibition came out at 91.2%.

Regarding `CCCC[C@H](NC(C)=O)C(=O)N[C@H]1CC(=O)NCCCC[C@@H](C(N)=O)NC(=O)CNC(=O)[C@H](Cc2c[nH]c3ccccc23)NC(=O)[C@H](CCCNC(=N)N)NC(=O)[C@@H](Cc2ccc3ccccc3c2)NC(=O)[C@@H]2C[C@@H](n3cc(-c4ccccn4)nn3)CN2C1=O`, the IC50 in assay [4] (hek293) worked out at 213 nM; on Melanocortin receptor 4 it was 4.01 nM; on Melanocortin receptor 3 (hek293), 6.35 nM.

Consider `CCCCCC(=O)N[C@H]1C[C@H]2C(=O)N[C@H](Cc3ccc4ccccc4c3)C(=O)N[C@@H](CCCNC(=N)N)C(=O)N[C@@H](Cc3c[nH]c4ccccc34)C(=O)NCC(=O)N[C@H](C(N)=O)CCCCNC(=O)C[C@H](NC(=O)[C@H](CCCC)NC(C)=O)C(=O)N2C1`, for which the IC50 in assay [4] turned out to be 10.1 nM.

For `CCCC[C@H](NC(C)=O)C(=O)N[C@H]1CC(=O)NCCCC[C@@H](C(N)=O)NC(=O)CNC(=O)[C@H](Cc2c[nH]c3ccccc23)NC(=O)[C@H](CCCNC(=N)N)NC(=O)[C@@H](Cc2ccc3ccccc3c2)NC(=O)[C@@H]2C[C@@H](n3cc(CCCNC(=N)N)nn3)CN2C1=O`, the IC50 was determined as 0.49 nM in assay [4] (hek293), 3.26 nM on Melanocortin receptor 4 and 18.8 nM on Melanocortin receptor 3 (hek293).

Turning to `CCCC[C@H](NC(C)=O)C(=O)N[C@H]1CC(=O)NCCCC[C@@H](C(N)=O)NC(=O)CNC(=O)[C@H](Cc2c[nH]c3ccccc23)NC(=O)[C@H](CCCNC(=N)N)NC(=O)[C@@H](Cc2ccc3ccccc3c2)NC(=O)[C@@H]2C[C@H](NC(=O)Cc3ccccc3)CN2C1=O`, in assay [4], the IC50 turned out to be 13.5 nM. Besides, in assay [3], the inhibition was determined as 90.1%.

Turning to `CCCC[C@H](NC(C)=O)C(=O)N[C@H]1CC(=O)NCCCC[C@@H](C(N)=O)NC(=O)CNC(=O)[C@H](Cc2c[nH]c3ccccc23)NC(=O)[C@H](CCCNC(=N)N)NC(=O)[C@@H](Cc2ccc3ccccc3c2)NC(=O)[C@@H]2C[C@H](n3cc(C4CCCCC4)nn3)CN2C1=O`, the IC50 stood at 77.4 nM in assay [4] and 56.8 nM at Melanocortin receptor 3. Further, the inhibition in assay [3] worked out at 89.5%.

Source of the values: ChEMBL document CHEMBL5528054, “Novel Cocrystal Structures of Peptide Antagonists Bound to the Human Melanocortin Receptor 4 Unveil Unexplored Grounds for Structure-Based Drug Design” (J Med Chem, 2024).
